Results published in patent US9777005B2 (Takeda Pharmaceutical Company Limited, priority 2012, dated 2017).

Target: T1, human M1 receptor (hCHRM1) (Homo sapiens, UniProt P11229)
T1 construct: expressed in transfected cells; host or cells: CHO-K1
T1 sequence (P11229 1-460): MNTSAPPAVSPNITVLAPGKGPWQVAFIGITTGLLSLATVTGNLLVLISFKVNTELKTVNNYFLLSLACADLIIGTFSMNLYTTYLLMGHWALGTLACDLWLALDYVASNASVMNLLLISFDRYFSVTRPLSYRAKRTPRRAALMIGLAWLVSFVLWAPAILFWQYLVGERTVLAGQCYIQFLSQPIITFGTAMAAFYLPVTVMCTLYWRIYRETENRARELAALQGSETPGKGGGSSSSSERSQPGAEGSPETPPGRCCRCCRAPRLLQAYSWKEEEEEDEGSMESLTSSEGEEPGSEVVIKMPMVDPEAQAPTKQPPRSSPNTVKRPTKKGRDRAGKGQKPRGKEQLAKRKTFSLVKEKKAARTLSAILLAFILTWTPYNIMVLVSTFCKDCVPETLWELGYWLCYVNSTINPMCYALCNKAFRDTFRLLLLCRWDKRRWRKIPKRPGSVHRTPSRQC
Experiment: Measurement of M1 receptor positive allosteric modulator (M1PAM) activity, calcium fluorescence (FLIPRtetra) in CHO-K1 cells in the presence of acetylcholine at EC20
Type: cell-based
Details: in the presence of acetylcholine at EC20 (final 0.6 nM), CHO-K1 cells expressing hCHRM1; for EC50: inflection point of M1PAM activity, read-out: IP value; for activity (%) at 10 μM: test compound 10 μM
Procedure, shortened: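 PAM activity was measured as calcium flux by FLIPRtetra over 1 min after co-addition of compound and EC20 acetylcholine (final 0.6 nM) to Fluo-4-loaded hCHRM1 CHO-K1 cells. The response was scaled between DMSO (0%) and 1 μM acetylcholine (100%), and the inflection point of the concentration curve gives the IP value.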

| SMILES | EC50 [nM] | activity (%) at 10 μM [%] |
| --- | --- | --- |
| Cn1cc(-c2ccc(CN3Cc4ccnc(Oc5ccc(OC(F)(F)F)cc5C#N)c4C3=O)cc2)cn1 [Example 363, 2-((2-(4-(1-methyl-1H-pyrazol-4-yl)benzyl)-3-oxo-2,3-dihydro-1H-pyrrolo[3,4-c]pyridin-4-yl)oxy)-5-(trifluoromethoxy)benzonitrile] | 6.6 | 94 |
| N#Cc1cc(F)c(Oc2cccc3c2C(=O)N(Cc2ccc(-n4cccn4)cc2)C3)c(F)c1 [Example 364, 3,5-difluoro-4-((3-oxo-2-(4-(1H-pyrazol-1-yl)benzyl)-2,3-dihydro-1H-isoindol-4-yl)oxy)benzonitrile] | 31 | 86 |
| Cn1ccc(-c2ccc(CN3Cc4ccnc(Oc5c(F)cc(F)cc5F)c4C3=O)cc2)n1 [Example 365, 2-(4-(1-methyl-1H-pyrazol-3-yl)benzyl)-4-(2,4,6-trifluorophenoxy)-1H-pyrrolo[3,4-c]pyridin-3(2H)-one] | 44 | 104 |
| Cn1ccc(-c2ccc(CN3Cc4ncnc(Oc5c(F)cc(F)cc5F)c4C3=O)cc2)n1 [Example 366, 6-(4-(1-methyl-1H-pyrazol-3-yl)benzyl)-4-(2,4,6-trifluorophenoxy)-6,7-dihydro-5H-pyrrolo[3,4-d]pyrimidin-5-one] | 42 | 104 |
| Cc1cc(-c2ccc(CN3Cc4ncnc(Oc5c(F)cc(F)cc5F)c4C3=O)cc2)ccn1 [Example 367, 6-(4-(2-methylpyridin-4-yl)benzyl)-4-(2,4,6-trifluorophenoxy)-6,7-dihydro-5H-pyrrolo[3,4-d]pyrimidin-5-one] | 28 | 101 |
| Cc1cc(-c2ccc(CN3Cc4ccnc(Oc5ccc(C#N)cc5F)c4C3=O)cc2)ccn1 [Example 368, 3-fluoro-4-((2-(4-(2-methylpyridin-4-yl)benzyl)-3-oxo-2,3-dihydro-1H-pyrrolo[3,4-c]pyridin-4-yl)oxy)benzonitrile] | 10 | 99 |
| O=C1c2c(ncnc2Oc2c(F)cc(F)cc2F)CN1Cc1ccc(-c2ccnnc2)cc1 [Example 369, 6-(4-(pyridazin-4-yl)benzyl)-4-(2,4,6-trifluorophenoxy)-6,7-dihydro-5H-pyrrolo[3,4-d]pyrimidin-5-one] | 54 | 103 |
| Cn1cc(-c2ccc(CN3Cc4ncnc(Oc5c(F)cc(F)cc5F)c4C3=O)cc2)nn1 [Example 370, 6-(4-(1-methyl-1H-1,2,3-triazol-4-yl)benzyl)-4-(2,4,6-trifluorophenoxy)-6,7-dihydro-5H-pyrrolo[3,4-d]pyrimidin-5-one] | 14 | 97 |
| Cn1ccc(-c2ccc(CN3Cc4ncnc(Oc5ccc(C#N)cc5F)c4C3=O)cc2)n1 [Example 371, 3-fluoro-4-((6-(4-(1-methyl-1H-pyrazol-3-yl)benzyl)-5-oxo-6,7-dihydro-5H-pyrrolo[3,4-d]pyrimidin-4-yl)oxy)benzonitrile] | 13 | 99 |
| Cc1nn(C)cc1-c1ccc(CN2Cc3ncnc(Oc4c(F)cccc4F)c3C2=O)c(F)c1 [Example 372, 4-(2,6-difluorophenoxy)-6-(4-(1,3-dimethyl-1H-pyrazol-4-yl)-2-fluorobenzyl)-6,7-dihydro-5H-pyrrolo[3,4-d]pyrimidin-5-one] | 46 | 109 |
| Cc1cc(-c2ccc(CN3Cc4ccnc(Oc5ccc(C#N)cc5F)c4C3=O)cc2)on1 [Example 373, 3-fluoro-4-((2-(4-(3-methyl-1,2-oxazol-5-yl)benzyl)-3-oxo-2,3-dihydro-1H-pyrrolo[3,4-c]pyridin-4-yl)oxy)benzonitrile] | 45 | 103 |
| Cn1ccc(-c2ccc(CN3Cc4ccnc(Oc5ccc(C#N)cc5F)c4C3=O)cc2)n1 [Example 374, 3-fluoro-4-((2-(4-(1-methyl-1H-pyrazol-3-yl)benzyl)-3-oxo-2,3-dihydro-1H-pyrrolo[3,4-c]pyridin-4-yl)oxy)benzonitrile] | 16 | 103 |
| Cn1ccc(-c2ccc(CN3Cc4ccnc(Oc5c(F)cc(C#N)cc5F)c4C3=O)cc2)n1 [Example 375, 3,5-difluoro-4-((2-(4-(1-methyl-1H-pyrazol-3-yl)benzyl)-3-oxo-2,3-dihydro-1H-pyrrolo[3,4-c]pyridin-4-yl)oxy)benzonitrile] | 10 | 99 |
| Cc1cc(-c2ccc(CN3Cc4ccnc(Oc5c(F)cc(C#N)cc5F)c4C3=O)cc2)ccn1 [Example 376, 3,5-difluoro-4-((2-(4-(2-methylpyridin-4-yl)benzyl)-3-oxo-2,3-dihydro-1H-pyrrolo[3,4-c]pyridin-4-yl)oxy)benzonitrile] | 6.9 | 106 |
| Cn1cc(-c2ccc(CN3Cc4cccc(Oc5c(F)cc(C#N)cc5F)c4C3=O)nc2)cn1 [Example 377, 3,5-difluoro-4-((2-((5-(1-methyl-1H-pyrazol-4-yl)pyridin-2-yl)methyl)-3-oxo-2,3-dihydro-1H-isoindol-4-yl)oxy)benzonitrile] | 7.6 | 83 |
| Cn1cc(-c2ccc(CN3Cc4cccc(Oc5c(F)cc(C#N)cc5F)c4C3=O)cn2)cn1 [Example 378, 3,5-difluoro-4-((2-((6-(1-methyl-1H-pyrazol-4-yl)pyridin-3-yl)methyl)-3-oxo-2,3-dihydro-1H-isoindol-4-yl)oxy)benzonitrile] | 33 | 98 |
| Cc1cc(-c2ccc(CN3Cc4ccnc(Oc5ccc(C(F)F)cc5F)c4C3=O)cc2)ccn1 [Example 379, 4-(4-(difluoromethyl)-2-fluorophenoxy)-2-(4-(2-methylpyridin-4-yl)benzyl)-1,2-dihydro-3H-pyrrolo[3,4-c]pyridin-3-one] | 14 | 90 |
| Cn1ccc(-c2ccc(CN3Cc4ccnc(Oc5ccc(C(F)F)cc5F)c4C3=O)cc2)n1 [Example 380, 4-(4-(difluoromethyl)-2-fluorophenoxy)-2-(4-(1-methyl-1H-pyrazol-3-yl)benzyl)-1,2-dihydro-3H-pyrrolo[3,4-c]pyridin-3-one] | 22 | 102 |
| Cc1nn(C)cc1-c1ccc(CN2Cc3ccnc(Oc4ccc(C(F)F)cc4F)c3C2=O)c(F)c1 [Example 381, 4-(4-(difluoromethyl)-2-fluorophenoxy)-2-(4-(1,3-dimethyl-1H-pyrazol-4-yl)-2-fluorobenzyl)-1,2-dihydro-3H-pyrrolo[3,4-c]pyridin-3-one] | 7.8 | 103 |
| CC(C)n1cc(-c2ccc(CN3Cc4cccc(Oc5c(F)cc(C#N)cc5F)c4C3=O)cn2)cn1 [Example 382, 3,5-difluoro-4-((2-((6-(1-isopropyl-1H-pyrazol-4-yl)pyridin-3-yl)methyl)-3-oxo-2,3-dihydro-1H-isoindol-4-yl)oxy)benzonitrile] | 70 | 99 |
| Cc1cc(-c2ccc(CN3Cc4ccnc(Oc5ccc(Cl)cc5F)c4C3=O)cc2)ccn1 [Example 383, 4-(4-chloro-2-fluorophenoxy)-2-(4-(2-methylpyridin-4-yl)benzyl)-1,2-dihydro-3H-pyrrolo[3,4-c]pyridin-3-one] | 48 | 86 |
| CC(C)n1cc(-c2ccc(CN3Cc4ccnc(Oc5c(F)cc(C#N)cc5F)c4C3=O)cc2)cn1 [Example 384, 3,5-difluoro-4-((2-(4-(1-isopropyl-1H-pyrazol-4-yl)benzyl)-3-oxo-2,3-dihydro-1H-pyrrolo[3,4-c]pyridin-4-yl)oxy)benzonitrile] | 7.8 | 91 |
| Cc1nn(C)cc1-c1ccc(CN2Cc3ccnc(Oc4c(F)cc(C#N)cc4F)c3C2=O)cc1 [Example 385, 4-((2-(4-(1,3-dimethyl-1H-pyrazol-4-yl)benzyl)-3-oxo-2,3-dihydro-1H-pyrrolo[3,4-c]pyridin-4-yl)oxy)-3,5-difluorobenzonitrile] | 2.6 | 85 |
| Cn1cc(-c2ccc(CN3Cc4ccnc(Oc5c(F)cc(C#N)cc5F)c4C3=O)c(F)c2)cn1 [Example 386, 3,5-difluoro-4-((2-(2-fluoro-4-(1-methyl-1H-pyrazol-4-yl)benzyl)-3-oxo-2,3-dihydro-1H-pyrrolo[3,4-c]pyridin-4-yl)oxy)benzonitrile] | 1.4 | 86 |
| Cn1ccc(-c2ccc(CN3Cc4ccnc(Oc5c(F)cc(C#N)cc5F)c4C3=O)c(F)c2)n1 [Example 387, 3,5-difluoro-4-((2-(2-fluoro-4-(1-methyl-1H-pyrazol-3-yl)benzyl)-3-oxo-2,3-dihydro-1H-pyrrolo[3,4-c]pyridin-4-yl)oxy)benzonitrile] | 7.1 | 102 |
| Cn1cc(-c2ccc(CN3Cc4ccnc(Oc5ccc(Cl)cc5F)c4C3=O)cc2)cn1 [Example 388, 4-(4-chloro-2-fluorophenoxy)-2-(4-(1-methyl-1H-pyrazol-4-yl)benzyl)-1,2-dihydro-3H-pyrrolo[3,4-c]pyridin-3-one] | 30 | 102 |
